Test system: spermatozoa
Test: Post-thaw sperm motility after freezing in supplemented CryoProtec medium, analyzed by CASA
Type: cell-based
Settings: for Percentage of motile spermatozoa: thawed after 24 h in liquid nitrogen, mean±SD, 5 experiments; for velocity parameters, including linear velocity (VSL) and lateral head displacement (AHL): post-thaw, Cryoprotec medium supplemented with compound
Description: Aliquots of 50 μL of solutions of different 4-thioderivatives of flavan-3-ol of formula (I) hereof dissolved in PureSperm Wash medium (Nidacon International, Sweden), were added to 0.95 mL of the spermatozoa suspension (50 millions/mL) in CryoProtec freezing medium (Nidacon International, Sweden) in 1.8 mL Nunc vials in order to obtain final concentrations of 1, 10, 25, 50 and 100 μg/mL. Aliquots of 50 μL of solutions of (−)-epicatechin, a natural flavan-3-ol, were treated in the same way. As a control, 50 μL of PureSperm Wash medium (Nidacon International) were added instead of the solutions of the compounds of the invention (0 μg/mL). The percentage of motile cells in the different cellular suspensions was analyzed by CASA (Computer-Assisted Sperm Analysis) using an IVOS-IDENT (Hamilton-Thorn, Beverly, Mass.).
The cellular suspensions were processed for freezing using a standard freezing gradient as follows: cooling from room temperature to 4° C. in 30 min, from 4° C. to 0° C. in 3 min and immediately transferred to liquid nitrogen tanks. After 24 h in liquid nitrogen, the samples were thawed in a water bath at 37° C.
The percentage of motile spermatozoa in the different samples obtained above was analyzed by CASA. Since vials corresponding to the different compounds were in different boxes inside the nitrogen tanks, a control was used for each group of compounds.
Values are the mean±SD from a total of 5 experiments per concentration.

[1] = 1 μg/mL (approximate) compound in freezing medium
[2] = 10 μg/mL (approximate) compound in freezing medium
[3] = 25 μg/mL (approximate) compound in freezing medium
[4] = 50 μg/mL (approximate) compound in freezing medium
[5] = 100 μg/mL (approximate) compound in freezing medium

| Compound | Percentage of motile spermatozoa [1] [%] | Percentage of motile spermatozoa [2] [%] | Percentage of motile spermatozoa [3] [%] | Percentage of motile spermatozoa [4] [%] | Percentage of motile spermatozoa [5] [%] | velocity parameters, including linear velocity (VSL) and lateral head displacement (AHL) | post-thaw motility recovery versus control ((−)-epicatechin versus control, all concentrations) | protection, evaluated in terms of sperm motility (concentrations ranging from 1 to 100 μg/mL) | storage stabilizing cryoprotective effect (summary statement) |
| --- | --- | --- | --- | --- | --- | --- | --- | --- | --- |
| N[C@@H](CS[C@H]1c2c(O)cc(O)cc2O[C@H](c2ccc(O)c(O)c2)[C@@H]1O)C(=O)O [4β-(S-cysteinyl)epicatechin] | 47.6 ± 3.0 | 52.0 ± 2.3 | 61.8 ± 2.6 | 69.8 ± 3.2 | 70.2 ± 2.8 | significantly higher | – | – | – |
| COC(=O)[C@H](CS[C@H]1c2c(O)cc(O)cc2O[C@H](c2ccc(O)c(O)c2)[C@@H]1O)NC(C)=O [Example 4, 4β-[S—(N-acetyl-O-methyl-cysteinyl)]epicatechin] | 47.6 ± 3.7 | 49.8 ± 3.0 | 54.8 ± 5.2 | 59.4 ± 3.3 | 59.2 ± 2.8 | significantly higher | – | – | – |
| Oc1cc(O)c2c(c1)O[C@H](c1ccc(O)c(O)c1)[C@H](O)C2 [(−)-epicatechin, reference compound] | 46.8 ± 1.9 | 47.0 ± 2.2 | 47.6 ± 3.2 | 47.4 ± 2.6 | 46.8 ± 1.3 | – | No significant differences | no significant protection | no significant storage stabilizing cryoprotective effect |
